The text below walks through data of patent EP0750618B1, “OXAZOLIDINONE DERIVATIVES AND PHARMACEUTICAL COMPOSITIONS CONTAINING THEM” (priority 1994, dated 1995).

In brackets after ≈: the same amount, converted by molar mass. Read-outs that look alike come from different tables or passages of the source.

Holding throughout (assay): MIC test, standard agar dilution method
On the technique in general: In agar dilution, organisms are placed on agar that contains the substance at set levels.

Test [1] has as its system Staphylococcus epidermidis (UC 12084). Format: cell-based. To be noted: UC12084, incubated overnight at 35°C, read-out: Minimum Inhibitory Concentrations (MIC) S. enidermidis.
In test [2] the test system is Staphylococcus aureus.
Test [3] relates to Streptococcus pyogenes (UC 152). Conditions: UC152, read-out: Minimum Inhibitory Concentrations (MIC) S. pyogenes.
[4] abbreviates: UC9213, read-out: Minimum Inhibitory Concentrations (MIC) S. aureus.

On to `COC(=O)[C@H]1CN(c2ccc(N3CC(CNC(C)=O)OC3=O)cc2F)CCC1=O` (stereo partly drawn) [Compound No. 34, (S)-1-{4-[5-(acetylamino-methyl)-2-oxo-oxazolidin-3-yl]-2-fluoro-phenyl}-4-oxo-piperidin-3-carboxylic acid methyl ester], for which the MIC in test [1] turned out to be 4 µg/mL (≈ 9.82 µM); in test [2] (setting [4]), 16 µg/mL (≈ 39.3 µM); in test [3], 4 µg/mL (≈ 9.82 µM).
As for `CONC1CCN(c2ccc(N3C[C@H](CNC(C)=O)OC3=O)cc2F)CC1` [Compound No. 59, (S)-N-{3-[3-fluoro-4-(4-methoxyamino-piperidin-1-yl)-phenyl]-2-oxo-oxazolidin-5-ylmethyl}-acetamide], the results for the MIC in test [1], in test [2] (setting [4]) and in test [3] were 2 µg/mL (≈ 5.26 µM), 4 µg/mL (≈ 10.5 µM) and 4 µg/mL (≈ 10.5 µM), respectively.
For `CC(=O)NC[C@H]1CN(c2ccc(N3CCC(=NN4CCN(CCO)CC4)CC3)c(F)c2)C(=O)O1` [compound 49, (S)-N-[3-(3-fluoro-4-{4-[4-(2-hydroxy-ethyl)-piperazin-1-ylimino]-piperidin-1-yl)-phenyl)-2-oxo-oxazolidin-5-ylmethyl]-acetamide], the MIC in test [1] turned out to be 0.5 µg/mL (≈ 1.05 µM); in test [2] (setting [4]) it was 4 µg/mL (≈ 8.39 µM); in test [3], 1 µg/mL (≈ 2.1 µM).
On the same counts, the results for `CN[C@H](CC(C)C)C(=O)N[C@H]1C(=O)N[C@@H](CC(N)=O)C(=O)N[C@H]2C(=O)N[C@H]3C(=O)N[C@H](C(=O)N[C@H](C(=O)O)c4cc(O)cc(O)c4-c4cc3ccc4O)[C@H](O)c3ccc(c(Cl)c3)Oc3cc2cc(c3O[C@@H]2O[C@H](CO)[C@@H](O)[C@H](O)[C@H]2O[C@H]2C[C@](C)(N)[C@H](O)[C@H](C)O2)Oc2ccc(cc2Cl)[C@H]1O` [Vancomycin, reference compound] are 2 µg/mL (≈ 1.38 µM), 1 µg/mL (≈ 0.69 µM) and 0.5 µg/mL (≈ 0.345 µM).
On the same counts, the results for `CC(=O)NC[C@H]1CN(c2ccc(N3CCC(NC(=O)OCOC(C)=O)CC3)c(F)c2)C(=O)O1` [compound 65, (S)-N-(3-{4-[4-(acetoxy-methoxy-carbonylamino)-piperidin-1-yl]-3-fluorophenyl}-2-oxo-oxazolidin-5-ylmethyl)-acetamide] are 1 µg/mL (≈ 2.14 µM), 8 µg/mL (≈ 17.2 µM) and 0.5 µg/mL (≈ 1.07 µM).
On the same counts, the results for `COCOCCON=C1CCN(c2ccc(N3C[C@H](CNC(C)=O)OC3=O)cc2F)CC1` [compound 53, (S)-N-(3-{3-fluoro-4-[4-(2-methoxymethoxy-ethoxyimino)-piperidin-1-yl]-phenyl}-2-oxo-oxazolidin-5-ylmethyl)-acetamide] are 2 µg/mL (≈ 4.42 µM), 16 µg/mL (≈ 35.4 µM) and 4 µg/mL (≈ 8.84 µM).
For `CC(=O)NC[C@H]1CN(c2ccc(N3CCCCC3)c(F)c2)C(=O)O1` [Compound No. 2, (S)-N-[3-(3-fluoro-4-piperidin-1-yl-phenyl)-2-oxo-oxazolidin-5-ylmethyl]-acetamide], the MIC was found to be 1 µg/mL (≈ 2.98 µM) in test [1]; 8 µg/mL (≈ 23.9 µM) in test [2] (UC9218, read-out: Minimum Inhibitory Concentrations (MIC) S. aureus); 4 µg/mL (≈ 11.9 µM) in test [3].
On to `CC(=O)NC[C@H]1CN(c2ccc(N3CCC(=NNC(=O)CO)CC3)c(F)c2)C(=O)O1` [compound 50, (S)-N-[3-(3-fluoro-4-{4-[(2-hydroxy-acetyl)-hydrazono]-piperidin-1-yl}-phenyl)-2-oxo-oxazolidin-5-ylmethyl]-acetamide], for which the MIC stood at 4 µg/mL (≈ 9.49 µM) in test [1], 16 µg/mL (≈ 38 µM) in test [2] (setting [4]) and 4 µg/mL (≈ 9.49 µM) in test [3].
For `CC(=O)NC[C@H]1CN(c2ccc(N3CCC(=NN4CCOCC4)CC3)c(F)c2)C(=O)O1` [compound 40, (S)-N-(3-{3-fluoro-4-[4-(morpholin-4-ylimino)-piperidin-1-yl]-phenyl}-2-oxo-oxazolidin-5-ylmethyl)-acetamide], the MIC in test [1] was determined as 0.5 µg/mL (≈ 1.15 µM); in test [2] (setting [4]), 4 µg/mL (≈ 9.23 µM); in test [3], 2 µg/mL (≈ 4.61 µM).
On to `CC(=O)NC[C@H]1CN(c2ccc(N3CCC(=NOC(=O)COCc4ccccc4)CC3)c(F)c2)C(=O)O1` [compound 45, (S)-N-{3-[3-fluoro-4-(4-benzyloxyacetoxyimino-piperidin-1-yl)-phenyl]-2-oxo-oxazolidin-5-ylmethyl}-acetamide], for which the MIC came to 0.5 µg/mL (≈ 0.976 µM) in test [1], 2 µg/mL (≈ 3.9 µM) in test [2] (setting [4]) and 2 µg/mL (≈ 3.9 µM) in test [3].
